Patent publication US9133183B2, “Imidazolidinones and analogs exhibiting anti-cancer and anti-proliferative activities” (Deciphera Pharmaceuticals, LLC, priority 2013, dated 2015)
pIC50: −log10 of the molar value.

Legend:
[1] = target: unphosphorylated c-FMS kinase (uFMS, Seq. ID no. 1) (Homo sapiens (Human), UniProt P07333); assay: uFMS kinase assay (ADP production coupled to pyruvate kinase/lactate dehydrogenase); type: biochemical; settings: enzymatic assay, ATP 500 μM; read-out: uFMS
Method: uFMS kinase (Seq. ID No. 1) Assay
In this assay, the oxidation of NADH (thus the decrease at A340 nm) was continuously monitored spectrophometrically. The reaction mixture (100 μL) contained FMS (purchased from Millipore) (10 nM), polyE4Y (1 mg/mL), MgCl2 (10 mM), pyruvate kinase (4 units), lactate dehydrogenase (0.7 units), phosphoenol pyruvate (1 mM), NADH (0.28 mM) and ATP (500 μM) in 90 mM Tris buffer containing 0.2% octyl-glucoside and 1% DMSO, pH 7.5. The inhibition reaction was started by mixing serial diluted test compound with the above reaction mixture. The absorption at 340 nm was monitored continuously for 4 hours at 30° C. on Synergy 2 plate reader. The reaction rate was calculated using the 3 to 4 h time frame. Percent inhibition was obtained by comparison of reaction rate with that of a control (i.e., in the absence of test compound). IC50 values were calculated from a series of percent inhibition values determined at a range of inhibitor concentrations using software routines as implemented in the GraphPad Prism software package.
uFMS Kinase Sequence (Y538-End) Used for Screening (Seq. ID No. 1)

[2] = target: unphosphorylated c-KIT kinase (uKIT, Seq. ID no. 2) (Homo sapiens (Human), UniProt P10721); assay: uKit kinase assay (coupled pyruvate kinase/lactate dehydrogenase); type: biochemical; settings: enzymatic assay, ATP 2000 μM
Method: uKit Kinase (Seq. ID No. 2) Assay
Activity of unphosphorylated c-KIT kinase (uKIT, Seq. ID no. 2) was determined by following the production of ADP from the KIT kinase reaction with ATP and poly E4Y as substrates through coupling with the pyruvate kinase/lactate dehydrogenase system (e.g., Schindler et al. Science (2000) 289: 1938-1942). In this assay, the oxidation of NADH (thus the decrease at A340 nm) was continuously monitored spectrophometrically. The reaction mixture (100 μl) contained unphosphorylated KIT (12 nM), polyE4Y (1 mg/mL), MgCl2 (10 mM), pyruvate kinase (4 units), lactate dehydrogenase (0.7 units), phosphoenol pyruvate (1 mM), and NADH (0.28 mM) and ATP (2000 μM) in 90 mM Tris buffer containing 0.2% octyl-glucoside and 1% DMSO, pH 7.5. The inhibition reaction was started by mixing serial diluted test compound with the above reaction mixture. The absorption at 340 nm was monitored continuously for 4 hours at 30° C. on Synergy 2 plate reader (BioTech). Reaction rates around 3 to 4 h time frame were used to calculate % inhibitions, from which IC50 values were generated.
uKit with N-Terminal GST Fusion Used for Screening (Seq ID No. 2)

osteoclast precursors = assay: Osteoclast tartrate-resistant acid phosphatase assay; type: cell-based; settings: Osteoclast, 7-14 days, RANKL and M-CSF
Method: Osteoclast Tartrate-Resistant Acid Phosphatase Assay
A serial dilution of test compound was dispensed into a 384-well black clear bottom plate (Nalge Nunc International, Rochester, N.Y.). Compound was diluted by the addition of DMEM media supplemented with 10% characterized fetal bovine serum (Invitrogen, Carlsbad, Calif.). Diluted compound was transferred to a 384-well black clear bottom plate. Two-thousand five hundred osteoclast precursors (Lonza, Walkersville, Md.) were added per well in growth media containing Receptor Activator of Nuclear Factor Kappa-beta ligand (RANKL) and M-CSF (R&D Systems, Minneapolis, Minn.). Plates were incubated for 7-14 days at 37 degrees Celsius, 5% CO2, and 95% humidity to allow differentiation of osteoclast precursors. At the end of the incubation period, 10 μL of supernatant from each well was transferred to a clear 384-well plate. Tartrate-resistant acid phosphatase activity in the supernatant samples was determined using an acid phosphatase assay kit (Sigma, St. Louis, Mo.). Absorbance was measured at 550 nm using a plate reader. Data was analyzed using Prism software (Graphpad, San Diego, Calif.) to calculate IC50 values.

M-NFS-60 cells = assay: M-NFS-60 cell proliferation assay (resazurin); type: cell-based; settings: 67 h incubation
Method: M-NFS-60 cells (catalog #CRL-1838) were obtained from the American Type Culture Collection (ATCC, Manassas, Va.). Briefly, cells were grown in suspension in RPMI 1640 medium supplemented with 10% characterized fetal bovine serum (Invitrogen, Carlsbad, Calif.), 0.05 mM 2-mercaptoethanol, and 20 ng/mL mouse recombinant macrophage colony stimulating factor (M-CSF) at 37° C., 5% CO2, and 95% humidity. Cells were allowed to expand until reaching saturation at which point they were subcultured or harvested for assay use.
M-NFS-60 Cell Proliferation Assay
A serial dilution of test compound was dispensed into a 384-well black clear bottom plate (Corning, Corning, N.Y.). Two thousand five hundred cells were added per well in 50 μL complete growth medium. Plates were incubated for 67 h at 37° C., 5% CO2, and 95% humidity. At the end of the incubation period 10 μL of a 440 μM solution of resazurin (Sigma, St. Louis, Mo.) in PBS was added to each well and incubated for an additional 5 h at 37° C., 5% CO2, and 95% humidity. Plates were read on a Synergy2 reader (Biotek, Winooski, Vt.) using an excitation of 540 nm and an emission of 600 nm. IC50 values were calculated from a series of percent inhibition values determined at a range of inhibitor concentrations using software routines as implemented in the GraphPad Prism software package.

Chain of unphosphorylated c-KIT kinase (uKIT, Seq. ID no. 2) (P10721 other isoform, or with tags, fused parts or gaps): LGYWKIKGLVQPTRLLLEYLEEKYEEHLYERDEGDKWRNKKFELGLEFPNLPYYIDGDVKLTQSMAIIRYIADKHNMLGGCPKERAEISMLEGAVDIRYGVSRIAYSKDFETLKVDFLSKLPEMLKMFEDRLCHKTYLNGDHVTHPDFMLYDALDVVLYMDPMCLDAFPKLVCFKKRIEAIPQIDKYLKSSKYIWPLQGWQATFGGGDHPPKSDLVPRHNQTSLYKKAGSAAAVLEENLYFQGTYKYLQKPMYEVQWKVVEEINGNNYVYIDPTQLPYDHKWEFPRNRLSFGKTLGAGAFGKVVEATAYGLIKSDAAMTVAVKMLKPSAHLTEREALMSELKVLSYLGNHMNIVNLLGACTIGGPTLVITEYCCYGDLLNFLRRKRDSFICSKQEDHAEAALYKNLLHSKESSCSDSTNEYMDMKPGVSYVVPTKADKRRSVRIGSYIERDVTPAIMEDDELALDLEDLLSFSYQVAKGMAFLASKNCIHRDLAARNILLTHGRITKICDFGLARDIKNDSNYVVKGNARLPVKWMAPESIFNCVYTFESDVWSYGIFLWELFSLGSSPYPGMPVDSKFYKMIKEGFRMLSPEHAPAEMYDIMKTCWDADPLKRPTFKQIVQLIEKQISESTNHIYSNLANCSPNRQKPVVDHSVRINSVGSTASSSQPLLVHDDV
Chain of unphosphorylated c-FMS kinase (uFMS, Seq. ID no. 1) (P07333 538-972): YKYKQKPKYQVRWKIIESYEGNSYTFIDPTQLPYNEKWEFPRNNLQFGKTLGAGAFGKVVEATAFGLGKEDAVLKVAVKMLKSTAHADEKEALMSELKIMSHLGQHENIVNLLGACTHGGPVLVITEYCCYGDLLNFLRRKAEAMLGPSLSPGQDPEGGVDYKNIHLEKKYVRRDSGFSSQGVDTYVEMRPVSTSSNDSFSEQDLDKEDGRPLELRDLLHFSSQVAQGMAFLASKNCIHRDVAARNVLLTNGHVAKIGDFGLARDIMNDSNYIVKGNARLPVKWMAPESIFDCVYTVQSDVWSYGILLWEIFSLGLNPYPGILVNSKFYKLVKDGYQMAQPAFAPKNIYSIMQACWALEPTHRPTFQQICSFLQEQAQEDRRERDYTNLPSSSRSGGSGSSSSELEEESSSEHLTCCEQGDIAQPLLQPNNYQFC

Row | pIC50 [1] | pIC50 [2] | pIC50 (osteoclast precursors) | Structure (SMILES) | pIC50 (M-NFS-60 cells)
1 | 7.00 to 8.00 | 6.00 to 7.00 | 7.00 to 8.00 | Cc1ncc(-c2cc(Oc3ccc(NC(=O)N4CCN(C5CC5)C4=O)nc3C)ccn2)s1 [Example 65, 3-cyclopropyl-N-(6-methyl-5-((2-(2-methylthiazol-5-yl)pyridin-4-yl)oxy)pyridin-2-yl)-2-oxoimidazolidine-1-carboxamide] | 6.00 to 7.00
2 | 7.00 to 8.00 | 6.00 to 7.00 | 6.00 to 7.00 | Cc1ncc(-c2cc(Oc3ccc(NC(=O)N4CCN(C5CCOCC5)C4=O)nc3C)ccn2)s1 [Example 66, N-(6-methyl-5-((2-(2-methylthiazol-5-yl)pyridin-4-yl)oxy)pyridin-2-yl)-2-oxo-3-(tetrahydro-2H-pyran-4-yl)imidazolidine-1-carboxamide] | 6.00 to 7.00
3 | 6.00 to 7.00 | < 6.00 | 6.00 to 7.00 | COCCN1CCN(C(=O)Nc2ccc(Oc3ccnc(-c4cnc(C)s4)c3)c(C)n2)C1=O [Example 67, 3-(2-methoxyethyl)-N-(6-methyl-5-((2-(2-methylthiazol-5-yl)pyridin-4-yl)oxy)pyridin-2-yl)-2-oxoimidazolidine-1-carboxamide] | 6.00 to 7.00
4 | 6.00 to 7.00 | < 6.00 | 6.00 to 7.00 | Cc1ncc(-c2cc(Oc3ccc(NC(=O)N4CCN(C)C4=O)nc3C)ccn2)s1 [Example 73, 3-methyl-N-(6-methyl-5-((2-(2-methylthiazol-5-yl)pyridin-4-yl)oxy)pyridin-2-yl)-2-oxoimidazolidine-1-carboxamide] | < 6.00
5 | 7.00 to 8.00 | 6.00 to 7.00 | 7.00 to 8.00 | Cc1ncc(-c2cc(Oc3ccc(NC(=O)N4CCN(CC(F)(F)F)C4=O)nc3C)ccn2)s1 [Example 74, N-(6-methyl-5-((2-(2-methylthiazol-5-yl)pyridin-4-yl)oxy)pyridin-2-yl)-2-oxo-3-(2,2,2-trifluoroethyl)imidazolidine-1-carboxamide] | 6.00 to 7.00
6 | > 8.00 | 6.00 to 7.00 | 7.00 to 8.00 | Cc1ncc(-c2cc(Oc3ccc(NC(=O)N4CCN(C5CCCC5)C4=O)nc3C)ccn2)s1 [Example 75, 3-cyclopentyl-N-(6-methyl-5-((2-(2-methylthiazol-5-yl)pyridin-4-yl)oxy)pyridin-2-yl)-2-oxoimidazolidine-1-carboxamide] | 7.00 to 8.00
7 | 7.00 to 8.00 | 6.00 to 7.00 | 6.00 to 7.00 | Cc1cn(-c2cc(Oc3ccc(NC(=O)N4CCN(CC(F)(F)F)C4=O)nc3)ccn2)cn1 [Example 76, N-(5-((2-(4-methyl-1H-imidazol-1-yl)pyridin-4-yl)oxy)pyridin-2-yl)-2-oxo-3-(2,2,2-trifluoroethyl)imidazolidine-1-carboxamide] | 6.00 to 7.00
8 | 7.00 to 8.00 | 7.00 to 8.00 | 6.00 to 7.00 | Cc1cn(-c2cc(Oc3ccc(NC(=O)N4CCN(C5CCOCC5)C4=O)nc3)ccn2)cn1 [Example 77, N-(5-((2-(4-methyl-11H-imidazol-1-yl)pyridin-4-yl)oxy)pyridin-2-yl)-2-oxo-3-(tetrahydro-2H-pyran-4-yl)imidazolidine-1-carboxamide] | 6.00 to 7.00
9 | 7.00 to 8.00 | < 6.00 | 6.00 to 7.00 | CCc1nc(NC(=O)N2CCN(C3CCCC3)C2=O)ccc1Oc1ccnc(-c2cnc(C)s2)c1 [Example 78, 3-cyclopentyl-N-(6-ethyl-5-((2-(2-methylthiazol-5-yl)pyridin-4-yl)oxy)pyridin-2-yl)-2-oxoimidazolidine-1-carboxamide] | < 6.00
10 | 6.00 to 7.00 | 6.00 to 7.00 | 6.00 to 7.00 | CCN1CCN(C(=O)Nc2ccc(Oc3ccnc(-n4cnc(C)c4)c3)cn2)C1=O [Example 79, 3-ethyl-N-(5-((2-(4-methyl-1H-imidazol-1-yl)pyridin-4-yl)oxy)pyridin-2-yl)-2-oxoimidazolidine-1-carboxamide] | < 6.00
11 | 7.00 to 8.00 | < 6.00 | 6.00 to 7.00 | COCCN1CCN(C(=O)Nc2ccc(Oc3ccnc(-c4cn(C)cn4)c3)c(C)n2)C1=O [Example 81, 3-(2-methoxyethyl)-N-(6-methyl-5-((2-(1-methyl-1H-imidazol-4-yl)pyridin-4-yl)oxy)pyridin-2-yl)-2-oxoimidazolidine-1-carboxamide] | 6.00 to 7.00
12 | 7.00 to 8.00 | > 8.00 | 7.00 to 8.00 | CCN1CCN(C(=O)Nc2ccc(Oc3ccnc(-c4cn(C)cn4)c3)cn2)C1=O [Example 82, 3-ethyl-N-(5-((2-(1-methyl-1H-imidazol-4-yl)pyridin-4-yl)oxy)pyridin-2-yl)-2-oxoimidazolidine-1-carboxamide] | 7.00 to 8.00
13 | > 8.00 | 7.00 to 8.00 | 7.00 to 8.00 | Cc1cc(-c2cc(Oc3ccc(NC(=O)N4CCN(C5CCOCC5)C4=O)nc3C)ccn2)ccn1 [Example 87, N-(6-methyl-5-((2′-methyl-[2,4′-bipyridin]-4-yl)oxy)pyridin-2-yl)-2-oxo-3-(tetrahydro-2H-pyran-4-yl)imidazolidine-1-carboxamide] | 7.00 to 8.00
